According to patent US20260035696A1, “COMBINATION TREATMENT FOR CANCER” (THE UNIVERSITY OF CHICAGO, priority 2022, published 2026):

System: IκBα phosphorylation and nuclear RELA in 3×KD BM-MDSCs
Assay: Immunoblot of NF-κB signaling in 3×KD BM-MDSCs co-cultured with LPS
Format: cell-based, mouse
Conditions: 3×KD (Adrb2, Metrnl, Smpdl3b) BM-MDSCs, LPS 5 min
Source text: FIGS. 15A-15I show YTHDF2 degrades Adrb2, Metrnl, and Smpdl3b transcripts and thereby activates NF-κB signaling in MDSCs. (FIG. 15A) MDSCs were sorted from MC38 tumors in WT, WT+IR, Ythdf2-cKO, Ythdf2-cKO+IR mice and subjected to qPCR analysis of Adrb2, Metrnl and Smpdl3b mRNA level. (FIG. 15B) Graphs showing enrichment of Adrb2, Metrnl and Smpdl3b mRNA in the YTHDF2-immunoprecipitated RNA fraction of bone marrow-derived MDSCs, determined by RIP-qPCR. (FIG. 15C) MDSCs were sorted from bone marrow-derived cells from WT and Ythdf2-cKO mice and were treated with actinomycin D. mRNA was collected at indicated time points after treatment and mRNA levels of Adrb2, Metrnl and Smpdl3b were measured by RT-qPCR. […] Three days after IR, the number of tumor-infiltrating CD45.1^+CD11b^+Ly6C^hi cells was determined. […] The attached cells on the transwell membrane were visualized under a light microscope and quantified. […] Three days after IR, the number of tumor-infiltrating Ccr2^+CD11b^+Ly6C^hi cells was determined. […]
FIGS. 29A-29M show YTHDF2 degrades Adrb2, Metrnl, and Smpdl3b transcripts and thereby activates NF-κB signaling in MDSCs. […] P values were calculated by a nonparametric Wilcoxon-Mann-Whitney test. […] Metrnl and Smpdl3b mRNA in the YTHDF2-immunoprecipitated RNA fraction of bone marrow-derived MDSCs, determined by RIP-qPCR. […]

## Cc1ccc(S(=O)(=O)/C=C/C#N)cc1 [BAY 11-7082]
  increase of IκBα phosphorylation and nuclear localization of RELA in knockdown MDSCs: prevented this increase
